Reference: patent publication US6355799B1, “Substituted benzene compounds, process for their preparation, and herbicidal and defoliant compositions containing them” (ISK Americas Incorporated, priority 1997, dated 2002)

What was measured:
Format in all cases: in vivo
[1] = test system: redroot pigweed (Amaranthus retroflexus, AMARE); test: Pre-emerge test, greenhouse herbicide activity screening; settings: for phytotoxicity rating AMARE: pre-emerge, 14 days after application; for Pre-emerge Herbicidal Activity AMARE: phytotoxicity rating 0-100, 14 days after application
Procedure, shortened: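 Sandy loam pots; pre-emerge: sown 1 d pre-spray, surface-watered after, then bottom-watered. Post-emerge: sown 8–21 d before, 2–3 leaf stage, + 0.25% v/v NIS, bottom-watered. Acetone, 187 l/ha track spray, 15–1000 g ai/ha. 0–100 injury score, day 14.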

[2] = test system: upland rice (Oryza sp., var. Tebonnet, RICE); test: Post-emerge test, crop safety; settings: post-emerge, 14 days after application, rating scale 0-100
Procedure, shortened: (§1)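 Herbicidal damage is scored 0 (none) to 100 (complete plant death) two weeks after a simulated field spray. Rates span 15–1000 g ai/ha, delivered in acetone at 187 l/ha. For post-emergence treatments, plants have 2–3 leaves and the spray carries 0.25% v/v non-ionic surfactant.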

[3] = test system: field corn (Zea mays L., var. Dekalb 535, CORN); test: Post-emerge test, crop safety; settings: post-emerge, 14 days after application, rating scale 0-100
Procedure, shortened: as §1

[4] = test system: johnsongrass (Sorghum halepense, SORHA); test: Pre-emerge test, greenhouse herbicide activity screening; settings: for phytotoxicity rating SORHA: pre-emerge, 14 days after application; for Pre-emerge Herbicidal Activity SORHA: phytotoxicity rating 0-100, 14 days after application
Procedure, shortened: as §1

[5] = test system: green foxtail (Setaria viridis, SETVI); test: as above; settings: for phytotoxicity rating SETVI: pre-emerge, 14 days after application; for Pre-emerge Herbicidal Activity SETVI: phytotoxicity rating 0-100, 14 days after application
Procedure, shortened: as §1

[6] = test system: velvetleaf (Abutilon theophrasti, ABUTH); test: as above; settings: for phytotoxicity rating ABUTH: pre-emerge, 14 days after application; for Pre-emerge Herbicidal Activity ABUTH: phytotoxicity rating 0-100, 14 days after application
Procedure, shortened: as §1

[7] = test system: large crabgrass (Digitaria sanguinalis, DIGSA); test: as above; settings: for phytotoxicity rating DIGSA: pre-emerge, 14 days after application; for Pre-emerge Herbicidal Activity DIGSA: phytotoxicity rating 0-100, 14 days after application
Procedure, shortened: as §1

[8] = test system: ivyleaf morningglory (Ipomoea hederacea, IPOHE); test: as above; settings: for phytotoxicity rating IPOHE: pre-emerge, 14 days after application; for Pre-emerge Herbicidal Activity IPOHE: phytotoxicity rating 0-100, 14 days after application
Procedure, shortened: as §1

[9] = test system: barnyardgrass (Echinochloa crus-galli, ECHCG); test: as above; settings: for phytotoxicity rating ECHCG: pre-emerge, 14 days after application; for Pre-emerge Herbicidal Activity ECHCG: phytotoxicity rating 0-100, 14 days after application
Procedure, shortened: as §1

[10] = test system: sicklepod (Cassia obtusifolia, CASOB); test: as above; settings: for phytotoxicity rating CASOB: pre-emerge, 14 days after application; for Pre-emerge Herbicidal Activity CASOB: phytotoxicity rating 0-100, 14 days after application
Procedure, shortened: as §1

[11] = test system: lambsquarters (Chenopodium album, CHEAL); test: as above; settings: for phytotoxicity rating CHEAL: pre-emerge, 14 days after application; for Pre-emerge Herbicidal Activity CHEAL: phytotoxicity rating 0-100, 14 days after application
Procedure, shortened: as §1

[12] = test system: green foxtail (Setaria viridis, SETVI); test: Post-emerge test, greenhouse herbicide activity screening; settings: post-emerge, 14 days after application, rating scale 0-100
Procedure, shortened: (§2)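 Compounds in acetone were track-sprayed at 15–1000 g ai/ha: pre-emergence onto soil sown the previous day, then top-watered to incorporate and later bottom-watered; post-emergence onto 2–3 leaf plants with 0.25% v/v surfactant, bottom-watered only. Ratings on a 0–100 phytotoxicity scale were taken at day 14.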

[13] = test system: velvetleaf (Abutilon theophrasti, ABUTH); test: as above; settings: post-emerge, 14 days after application, rating scale 0-100
Procedure, shortened: as §2

[14] = test system: large crabgrass (Digitaria sanguinalis, DIGSA); test: as above; settings: post-emerge, 14 days after application, rating scale 0-100
Procedure, shortened: as §2

[15] = test system: ivyleaf morningglory (Ipomoea hederacea, IPOHE); test: as above; settings: post-emerge, 14 days after application, rating scale 0-100
Procedure, shortened: as §2

[16] = test system: barnyardgrass (Echinochloa crus-galli, ECHCG); test: as above; settings: post-emerge, 14 days after application, rating scale 0-100
Procedure, shortened: as §2

[17] = test system: redroot pigweed (Amaranthus retroflexus, AMARE); test: as above; settings: post-emerge, 14 days after application, rating scale 0-100
Procedure, shortened: as §2

[18] = test system: sicklepod (Cassia obtusifolia, CASOB); test: as above; settings: post-emerge, 14 days after application, rating scale 0-100
Procedure, shortened: as §2

[19] = test system: upland rice (Oryza sp., var. Tebonnet, RICE); test: Pre-emerge test, crop safety; settings: for phytotoxicity rating RICE (crop damage) / phytotoxicity rating RICE: pre-emerge, 14 days after application; for phytotoxicity rating RICE (crop damage): scale 0-100; for phytotoxicity rating RICE: rating scale 0-100; for Pre-emerge Herbicidal Activity RICE: crop damage rating 0-100, 14 days after application
Procedure, shortened: (§3)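 Applied at 15–1000 g ai/ha from acetone in 187 l/ha spray volume. Post-emergence applications included 0.25% v/v non-ionic surfactant and reached plants sown 8–21 days before. Pre-emergence applications were incorporated by surface watering. Efficacy or crop damage was rated on a 0–100 scale after 14 days.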

[20] = test system: field corn (Zea mays L., var. Dekalb 535, CORN); test: Pre-emerge test, crop safety; settings: for phytotoxicity rating CORN (crop damage) / phytotoxicity rating CORN: pre-emerge, 14 days after application; for phytotoxicity rating CORN (crop damage): scale 0-100; for phytotoxicity rating CORN: rating scale 0-100; for Pre-emerge Herbicidal Activity CORN: crop damage rating 0-100, 14 days after application
Procedure, shortened: as §3

[21] = 250 g ai/ha, rating scale 0-100

COc1ccc(-n2c(=O)cc(C(F)(F)F)n(C)c2=O)c(NC(=O)c2ccc3ccccc3c2)c1 [2-143]
phytotoxicity rating AMARE ([1]; 63 g ai/ha, scale 0-100): 100 | phytotoxicity rating AMARE ([1]; 250 g ai/ha, scale 0-100): 100 | RICE phytotoxicity rating (crop damage) ([2]; 63 g ai/ha): 40 | RICE phytotoxicity rating (crop damage) ([2]; 250 g ai/ha): 70 | CORN phytotoxicity rating (crop damage) ([3]; 63 g ai/ha): 10 | CORN phytotoxicity rating (crop damage) ([3]; 250 g ai/ha): 35 | phytotoxicity rating SORHA ([4]; 63 g ai/ha, scale 0-100): 30 | phytotoxicity rating SORHA ([4]; 250 g ai/ha, scale 0-100): 80 | phytotoxicity rating SETVI ([5]; 63 g ai/ha, scale 0-100): 30 | phytotoxicity rating SETVI ([5]; 250 g ai/ha, scale 0-100): 70 | phytotoxicity rating ABUTH ([6]; 63 g ai/ha, scale 0-100): 100 | phytotoxicity rating ABUTH ([6]; 250 g ai/ha, scale 0-100): 100 | phytotoxicity rating DIGSA ([7]; 63 g ai/ha, scale 0-100): 30 | phytotoxicity rating DIGSA ([7]; 250 g ai/ha, scale 0-100): 100 | phytotoxicity rating IPOHE ([8]; 63 g ai/ha, scale 0-100): 0 | phytotoxicity rating IPOHE ([8]; 250 g ai/ha, scale 0-100): 35 | phytotoxicity rating ECHCG ([9]; 63 g ai/ha, scale 0-100): 30 | phytotoxicity rating ECHCG ([9]; 250 g ai/ha, scale 0-100): 85 | phytotoxicity rating CASOB ([10]; 63 g ai/ha, scale 0-100): 0 | phytotoxicity rating CASOB ([10]; 250 g ai/ha, scale 0-100): 90 | phytotoxicity rating CHEAL ([11]; 63 g ai/ha, scale 0-100): 100 | phytotoxicity rating CHEAL ([11]; 250 g ai/ha, scale 0-100): 100 | SETVI phytotoxicity rating ([12]; 63 g ai/ha): 0 | SETVI phytotoxicity rating ([12]; 250 g ai/ha): 40 | ABUTH phytotoxicity rating ([13]; 63 g ai/ha): 100 | ABUTH phytotoxicity rating ([13]; 250 g ai/ha): 100 | DIGSA phytotoxicity rating ([14]; 63 g ai/ha): 0 | DIGSA phytotoxicity rating ([14]; 250 g ai/ha): 40 | IPOHE phytotoxicity rating ([15]; 63 g ai/ha): 60 | IPOHE phytotoxicity rating ([15]; 250 g ai/ha): 100 | ECHCG phytotoxicity rating ([16]; 63 g ai/ha): 0 | ECHCG phytotoxicity rating ([16]; 250 g ai/ha): 30 | AMARE phytotoxicity rating ([17]; 63 g ai/ha): 100 | AMARE phytotoxicity rating ([17]; 250 g ai/ha): 100 | CASOB phytotoxicity rating ([18]; 63 g ai/ha): 70 | CASOB phytotoxicity rating ([18]; 250 g ai/ha): 100 | phytotoxicity rating RICE (crop damage) ([19]; 63 g ai/ha): 20 | phytotoxicity rating RICE (crop damage) ([19]; 250 g ai/ha): 65 | phytotoxicity rating CORN (crop damage) ([20]; 63 g ai/ha): 0 | phytotoxicity rating CORN (crop damage) ([20]; 250 g ai/ha): 5

Cn1c(C(F)(F)F)cc(=O)n(-c2ccc(Cl)cc2C(=O)c2ccccc2)c1=O [14-57]
phytotoxicity rating AMARE ([1]; 63 g ai/ha, rating scale 0-100): 0 | phytotoxicity rating AMARE [1, 21]: 0 | phytotoxicity rating SORHA ([4]; 63 g ai/ha, rating scale 0-100): 0 | phytotoxicity rating SORHA [4, 21]: 0 | phytotoxicity rating SETVI ([5]; 63 g ai/ha, rating scale 0-100): 0 | phytotoxicity rating SETVI [5, 21]: 0 | phytotoxicity rating ABUTH ([6]; 63 g ai/ha, rating scale 0-100): 0 | phytotoxicity rating ABUTH [6, 21]: 0 | phytotoxicity rating DIGSA ([7]; 63 g ai/ha, rating scale 0-100): 0 | phytotoxicity rating DIGSA [7, 21]: 20 | phytotoxicity rating IPOHE ([8]; 63 g ai/ha, rating scale 0-100): 0 | phytotoxicity rating IPOHE [8, 21]: 0 | phytotoxicity rating ECHCG ([9]; 63 g ai/ha, rating scale 0-100): 0 | phytotoxicity rating ECHCG [9, 21]: 0 | phytotoxicity rating CASOB ([10]; 63 g ai/ha, rating scale 0-100): 0 | phytotoxicity rating CASOB [10, 21]: 0 | phytotoxicity rating CHEAL ([11]; 63 g ai/ha, rating scale 0-100): 0 | phytotoxicity rating CHEAL [11, 21]: 0 | phytotoxicity rating RICE ([19]; 63 g ai/ha): 0 | phytotoxicity rating RICE ([19]; 250 g ai/ha): 0 | phytotoxicity rating CORN ([20]; 63 g ai/ha): 0 | phytotoxicity rating CORN ([20]; 250 g ai/ha): 0

COc1c(Cl)cc(F)c(-n2c(=O)cc(C(F)(F)F)n(C)c2=O)c1NC(=O)N(Cc1ccccc1)c1ccccc1 [Compound 3-23]
Pre-emerge Herbicidal Activity AMARE ([1]; 63 g ai/ha): 0 | Pre-emerge Herbicidal Activity AMARE ([1]; 250 g ai/ha): 0 | Pre-emerge Herbicidal Activity SORHA ([4]; 63 g ai/ha): 0 | Pre-emerge Herbicidal Activity SORHA ([4]; 250 g ai/ha): 0 | Pre-emerge Herbicidal Activity SETVI ([5]; 63 g ai/ha): 0 | Pre-emerge Herbicidal Activity SETVI ([5]; 250 g ai/ha): 0 | Pre-emerge Herbicidal Activity ABUTH ([6]; 63 g ai/ha): 0 | Pre-emerge Herbicidal Activity ABUTH ([6]; 250 g ai/ha): 40 | Pre-emerge Herbicidal Activity DIGSA ([7]; 63 g ai/ha): 0 | Pre-emerge Herbicidal Activity DIGSA ([7]; 250 g ai/ha): 0 | Pre-emerge Herbicidal Activity IPOHE ([8]; 63 g ai/ha): 0 | Pre-emerge Herbicidal Activity IPOHE ([8]; 250 g ai/ha): 0 | Pre-emerge Herbicidal Activity ECHCG ([9]; 63 g ai/ha): 0 | Pre-emerge Herbicidal Activity ECHCG ([9]; 250 g ai/ha): 0 | Pre-emerge Herbicidal Activity CASOB ([10]; 63 g ai/ha): 0 | Pre-emerge Herbicidal Activity CASOB ([10]; 250 g ai/ha): 0 | Pre-emerge Herbicidal Activity CHEAL ([11]; 63 g ai/ha): 0 | Pre-emerge Herbicidal Activity CHEAL ([11]; 250 g ai/ha): 70 | Pre-emerge Herbicidal Activity RICE ([19]; 63 g ai/ha): 0 | Pre-emerge Herbicidal Activity RICE ([19]; 250 g ai/ha): 0 | Pre-emerge Herbicidal Activity CORN ([20]; 63 g ai/ha): 0 | Pre-emerge Herbicidal Activity CORN ([20]; 250 g ai/ha): 0
